Experimental data: patent publication US9693556B2, “Herbicidal pyridazinone derivatives” (SYNGENTA LIMITED, priority 2011, dated 2017)

Assays:
Type in all cases: in vivo
[1] = tested on: Amaranthus retoflexus (AMARE); test: Post-emergence herbicidal glasshouse test on Amaranthus retoflexus; details: post-emergence; 1000 g/h; evaluated after 13 days
How it was run: (§1)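 Pre-emergence treatment came one day after sowing, post-emergence treatment after eight days' growth; both used 1000 g/h in a 0.5% Tween 20 acetone/water vehicle. Percent damage, scored 1–5, was read 13 days later.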

Setaria faberi (SETFA) [2] = test: Post-emergence herbicidal glasshouse test on Setaria faberi; details: post-emergence; 1000 g/h; evaluated after 13 days
How it was run: as §1

[3] = tested on: Alopecurus myosuroides (ALOMY); test: Post-emergence herbicidal glasshouse test on Alopecurus myosuroides; details: post-emergence; 1000 g/h; evaluated after 13 days
How it was run: as §1

[4] = tested on: Echinochloa crus-galli (ECHCG); test: Pre-emergence herbicidal glasshouse test on Echinochloa crus-galli; details: pre-emergence; 1000 g/h; evaluated after 13 days
How it was run: as §1

[5] = tested on: Ipomoea hederacea (IPOHE); test: Pre-emergence herbicidal glasshouse test on Ipomoea hederacea; details: pre-emergence; 1000 g/h; evaluated after 13 days
How it was run: as §1

[6] = tested on: Echinochloa crus-galli (ECHCG); test: Post-emergence herbicidal glasshouse test on Echinochloa crus-galli; details: post-emergence; 1000 g/h; evaluated after 13 days
How it was run: as §1

[7] = tested on: Alopecurus myosuroides (ALOMY); test: Pre-emergence herbicidal glasshouse test on Alopecurus myosuroides; details: pre-emergence; 1000 g/h; evaluated after 13 days
How it was run: as §1

Setaria faberi (SETFA) [8] = test: Pre-emergence herbicidal glasshouse test on Setaria faberi; details: pre-emergence; 1000 g/h; evaluated after 13 days
How it was run: as §1

[9] = tested on: Amaranthus retoflexus (AMARE); test: Pre-emergence herbicidal glasshouse test on Amaranthus retoflexus; details: pre-emergence; 1000 g/h; evaluated after 13 days
How it was run: as §1

Solanum nigrum (SOLNI) [10] = test: Post-emergence herbicidal glasshouse test on Solanum nigrum; details: post-emergence; 1000 g/h; evaluated after 13 days
How it was run: as §1

[11] = tested on: Ipomoea hederacea (IPOHE); test: Post-emergence herbicidal glasshouse test on Ipomoea hederacea; details: post-emergence; 1000 g/h; evaluated after 13 days
How it was run: as §1

Solanum nigrum (SOLNI) [12] = test: Pre-emergence herbicidal glasshouse test on Solanum nigrum; details: pre-emergence; 1000 g/h; evaluated after 13 days
How it was run: as §1

SMILES	POST Application AMARE herbicidal damage (five point scale) [1]	POST Application SETFA herbicidal damage (five point scale) (Setaria faberi (SETFA) [2])	POST Application ALOMY herbicidal damage (five point scale) [3]	PRE Application ECHCG herbicidal damage (five point scale) [4]	PRE Application IPOHE herbicidal damage (five point scale) [5]	POST Application ECHCG herbicidal damage (five point scale) [6]	PRE Application ALOMY herbicidal damage (five point scale) [7]	PRE Application SETFA herbicidal damage (five point scale) (Setaria faberi (SETFA) [8])	PRE Application AMARE herbicidal damage (five point scale) [9]	POST Application SOLNI herbicidal damage (five point scale) (Solanum nigrum (SOLNI) [10])	POST Application IPOHE herbicidal damage (five point scale) [11]	PRE Application SOLNI herbicidal damage (five point scale) (Solanum nigrum (SOLNI) [12])
Cc1cc(-c2cnn(C)c(=O)c2O)c(C)c2c1S(=O)(=O)CCC21OCCO1 [Compound 1.031]	5 (5=80-100% damage)	5 (5=80-100% damage)	2 (2=20-39% damage)	5 (5=80-100% damage)	1 (1=0-19% damage)	5 (5=80-100% damage)	1 (1=0-19% damage)	4 (4=60-79% damage)	5 (5=80-100% damage)	5 (5=80-100% damage)	5 (5=80-100% damage)	2 (2=20-39% damage)
Cn1ncc(-c2ccc(S(C)(=O)=O)c(C3=NOCC3)c2Cl)c(O)c1=O [Compound 1.032]	5 (5=80-100% damage)	5 (5=80-100% damage)	5 (5=80-100% damage)	5 (5=80-100% damage)	4 (4=60-79% damage)	5 (5=80-100% damage)	5 (5=80-100% damage)	5 (5=80-100% damage)	5 (5=80-100% damage)	5 (5=80-100% damage)	5 (5=80-100% damage)	5 (5=80-100% damage)
Cn1ncc(-c2ccc(C(F)(F)F)cc2C(F)(F)F)c(O)c1=O [Compound 1.033]	5 (5=80-100% damage)	1 (1=0-19% damage)	2 (2=20-39% damage)	2 (2=20-39% damage)	1 (1=0-19% damage)	2 (2=20-39% damage)	1 (1=0-19% damage)	1 (1=0-19% damage)	5 (5=80-100% damage)	5 (5=80-100% damage)	5 (5=80-100% damage)	5 (5=80-100% damage)
COCCOc1c(S(C)(=O)=O)ccc(-c2cnn(C)c(=O)c2O)c1Cl [Compound 1.034]	5 (5=80-100% damage)	5 (5=80-100% damage)	4 (4=60-79% damage)	5 (5=80-100% damage)	3 (3=40-59% damage)	5 (5=80-100% damage)	2 (2=20-39% damage)	5 (5=80-100% damage)	5 (5=80-100% damage)	5 (5=80-100% damage)	5 (5=80-100% damage)	5 (5=80-100% damage)
Cc1c(-c2cnn(C)c(=O)c2O)ccc2c1C(=O)N(C)S2(=O)=O [Compound 1.035]	5 (5=80-100% damage)	1 (1=0-19% damage)	2 (2=20-39% damage)	5 (5=80-100% damage)	4 (4=60-79% damage)	5 (5=80-100% damage)	1 (1=0-19% damage)	1 (1=0-19% damage)	5 (5=80-100% damage)	5 (5=80-100% damage)	5 (5=80-100% damage)	3 (3=40-59% damage)
Cn1ncc(-c2ccccc2[S+](C)[O-])c(O)c1=O (stereo not drawn) [Compound 1.036]	5 (5=80-100% damage)	5 (5=80-100% damage)	5 (5=80-100% damage)	2 (2=20-39% damage)	1 (1=0-19% damage)	5 (5=80-100% damage)	3 (3=40-59% damage)	2 (2=20-39% damage)	3 (3=40-59% damage)	5 (5=80-100% damage)	5 (5=80-100% damage)	1 (1=0-19% damage)
Cn1ncc(-n2ccc(C(F)(F)F)c(-c3cccc(Cl)c3)c2=O)c(O)c1=O [Compound 1.037]	5 (5=80-100% damage)	4 (4=60-79% damage)	4 (4=60-79% damage)	5 (5=80-100% damage)	1 (1=0-19% damage)	4 (4=60-79% damage)	4 (4=60-79% damage)	4 (4=60-79% damage)	5 (5=80-100% damage)	5 (5=80-100% damage)	4 (4=60-79% damage)	5 (5=80-100% damage)
Cc1cccc(-c2c(C(F)(F)F)ccn(-c3cnn(C)c(=O)c3O)c2=O)c1 [Compound 1.038, 4-hydroxy-2-methyl-5-[3-(m-tolyl)-2-oxo-4-(trifluoromethyl)-1-pyridyl]pyridazin-3-one]	5 (5=80-100% damage)	5 (5=80-100% damage)	4 (4=60-79% damage)	5 (5=80-100% damage)	1 (1=0-19% damage)	4 (4=60-79% damage)	3 (3=40-59% damage)	3 (3=40-59% damage)	5 (5=80-100% damage)	5 (5=80-100% damage)	4 (4=60-79% damage)	5 (5=80-100% damage)
Cn1ncc(-c2cc3cccnc3nc2C(F)(F)F)c(O)c1=O [Compound 1.039]	5 (5=80-100% damage)	5 (5=80-100% damage)	4 (4=60-79% damage)	5 (5=80-100% damage)	5 (5=80-100% damage)	5 (5=80-100% damage)	2 (2=20-39% damage)	3 (3=40-59% damage)	5 (5=80-100% damage)	5 (5=80-100% damage)	5 (5=80-100% damage)	4 (4=60-79% damage)
CN(Cc1nc(C(F)(F)F)ccc1-c1cnn(C)c(=O)c1O)S(C)(=O)=O [Compound 1.040]	5 (5=80-100% damage)	5 (5=80-100% damage)	4 (4=60-79% damage)	5 (5=80-100% damage)	4 (4=60-79% damage)	5 (5=80-100% damage)	5 (5=80-100% damage)	5 (5=80-100% damage)	5 (5=80-100% damage)	5 (5=80-100% damage)	5 (5=80-100% damage)	5 (5=80-100% damage)
